This is an account of results in publication PMC11111691, “Cystine-knot peptide inhibitors of HTRA1 bind to a cryptic pocket within the active site region” (Nature Communications, 2024).

Positions of bridges follow the written chain, without caps; N, C: chain ends. Residues, ends and D or L forms follow the SMILES beside them.

For one test, the target named is T1, HTRA1^FL (Homo sapiens, UniProt Q92743).
T1 construct: Human full-length HTRA1 (HTRA1^FL, Q23-P480); made in house; host or cells: Trichoplusia ni cells
The test can be described thus: HTRA1^FL enzyme inhibition assay with synthetic substrate H2-OPT. Format: biochemical. Here is the method:
Assays with the fluorescence-quenched synthetic substrate Mca-IRRVSYSFK(Dnp)K (H2-OPT)[38],[60] were carried out essentially as described. CKP stock solutions in DMSO were diluted in TNC buffer (dilution series for IC50 determinations, or final concentration of 2 µM for selectivity assay or as indicated for HTRA1/4 mutants) and incubated with enzymes in 96-well black optical bottom plates for 60 min at 37 °C. For selectivity experiments we used the 7mer-ABP as inhibitor, which was incubated with the proteases for 15 min at 37 °C. A 10 mM stock solution of H2-OPT in DMSO was diluted with water, prewarmed at 37 °C and then added to the CKP-enzyme mixtures. The final concentrations in the reaction mixtures were: 1 nM HTRA1^FL, 3 nM HTRA1^PD/PDZ, 1 nM HTRA1^PD, 1 nM HTRA2^PD/PDZ, 3 nM HTRA3^FL, 60 nM HTRA3^PD/PDZ, 6 nM HTRA4^FL, 1 µM HTRA4^PD/PDZ, 1 nM mouse HTRA1^PD, 25 nM HTRA1^PD-A202Y, 1 µM HTRA4^PD/PDZ-Y200A, 0.5 mM 7mer-ABP, 5 µM H2-OPT, and 0.25% DMSO. The kinetics of substrate cleavage was measured at 37 °C on a SpectraMax M5 microplate reader with excitation of 328 nm and emission of 393 nm. The determined initial rates of cleavage were expressed as percent of control (DMSO control) after subtracting the baseline rates (without enzyme). IC50 values were determined by Sigmoidal 4PL modeling of multiple data points from serial dilutions of CKPs using Prism 9 software (GraphPad). For selectivity assays with HTRA1-4^PD/PDZ constructs, the specific activities of the enzymes and enzyme:CKP inhibitor ratios were as follows: HTRA1^PD/PDZ, 12560 mRFU/min/nM – 1:667; HTRA2^PD/PDZ, 32300 mRFU/min/nM – 1:2000; HTRA3^PD/PDZ, 962 mRFU/min/nM – 1:33; HTRA4^PD/PDZ, 18 mRFU/min/nM – 1:2.

For another test, the target named is T2, HTRA1^PD(SA) (Homo sapiens, UniProt Q92743, S328A).
T2 construct: The protease domains of human HTRA1 (HTRA1^PD; D161-K379); made in house; host or cells: E. coli
The test can be described thus: SPR binding kinetics to HTRA1^PD(SA). The following applies: mean ± S.D. of three or more independent experiments; for koff / kon: SPR Biacore S200, 25 °C, single cycle kinetics, 1:1 Langmuir model; for Kd: SPR, calculated from kon and koff, CPI up to 10 µM. The procedure: Surface plasmon resonance (SPR) experiments were performed using a Biacore S200 instrument at 25 °C. His-tagged HTRA proteins were captured on a CM5 sensor chip using the His-capture kit (GE Healthcare). Protein concentrations used for immobilization were as follows; HTRA1^PD(SA), HTRA1^PD and HTRA1^PD-ABP 2 µg/ml with 60-s injections at 10 µl/min, HTRA2^PD/PDZ, HTRA3^PD/PDZ, and HTRA4^PD/PDZ 4 µg/ml with 60-s injections at 10 µl/min. Approximate immobilization levels of HTRA proteins were as follows; HTRA1^PD(SA) 700 RU, HTRA1^PD 900 RU, HTRA1^PD-ABP 900 RU, HTRA2^PD/PDZ 500 RU, HTRA3^PD/PDZ 500 RU, HTRA4^PD/PDZ 500 RU. All CKPs were prepared in HBS-EP buffer (0.01 M HEPES pH 7.4, 0.15 M NaCl, 3 mM EDTA, 0.005% v/v Surfactant P20). All CKP concentrations were injected for 120 s at a flow rate of 30 μl/min. A reference channel was subtracted from the HTRA-captured channel.
Binding kinetics of peptides to HTRA1^PD(SA) were determined by flowing six serial three-fold dilutions of peptide over the HTRA1^PD(SA) immobilized surface using a single cycle kinetics model. CKP maximum concentrations were as follows: 1A7, 1A8, 1C10, 2D5, and 3A7, 300 nM; 1G10-ENI and 1D3-ENI, 100 nM; 3B3, 3000 nM; and CPI, 10,000 nM. Data were analyzed using GE BIA evaluation software using a 1:1 Langmuir binding model. The KD values, calculated from the determined kon and koff values, were the mean ± S.D. of 3–4 independent experiments.

T2 sequence (Q92743 161-379 S328A): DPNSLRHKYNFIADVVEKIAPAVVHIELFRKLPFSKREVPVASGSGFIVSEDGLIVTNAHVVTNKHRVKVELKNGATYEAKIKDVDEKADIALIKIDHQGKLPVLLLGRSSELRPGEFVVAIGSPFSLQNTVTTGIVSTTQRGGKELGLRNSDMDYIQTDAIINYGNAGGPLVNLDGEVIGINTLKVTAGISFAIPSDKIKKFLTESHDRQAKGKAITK
T1 sequence (Q92743 23-480): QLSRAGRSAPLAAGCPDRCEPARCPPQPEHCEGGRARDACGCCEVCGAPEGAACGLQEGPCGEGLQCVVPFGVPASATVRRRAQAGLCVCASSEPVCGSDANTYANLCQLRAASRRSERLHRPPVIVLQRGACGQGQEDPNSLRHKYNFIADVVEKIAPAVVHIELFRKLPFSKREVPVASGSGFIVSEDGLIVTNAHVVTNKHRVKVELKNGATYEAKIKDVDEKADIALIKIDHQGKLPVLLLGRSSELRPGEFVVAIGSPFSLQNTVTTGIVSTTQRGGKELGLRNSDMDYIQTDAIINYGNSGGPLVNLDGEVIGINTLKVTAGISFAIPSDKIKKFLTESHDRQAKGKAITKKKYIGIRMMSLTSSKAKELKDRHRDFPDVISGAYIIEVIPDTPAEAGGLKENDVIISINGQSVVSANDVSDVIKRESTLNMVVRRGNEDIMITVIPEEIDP

On HTRA1^FL, `CC[C@H](C)[C@H](NC(=O)[C@H](CCC(N)=O)NC(=O)[C@H](CCCNC(=N)N)NC(=O)[C@H](CC(C)C)NC(=O)CNC(=O)[C@H](Cc1c[nH]c2ccccc12)NC(=O)CNC(=O)[C@@H]1CSSC[C@@H]2NC(=O)[C@H](CC(=O)O)NC(=O)[C@H](CC(=O)O)NC(=O)[C@H](Cc3c[nH]cn3)NC(=O)[C@H]([C@@H](C)O)NC(=O)[C@H](CCCCN)NC(=O)[C@@H]3CSSC[C@H](NC(=O)[C@H]([C@@H](C)O)NC(=O)[C@H](CCC(N)=O)NC(=O)[C@H](CSSC[C@H](NC(=O)[C@@H](NC(=O)[C@@H]4CCCN4C(=O)[C@H](CC(=O)O)NC(=O)[C@H](C)NC(=O)[C@@H](N)Cc4c[nH]cn4)[C@@H](C)CC)C(=O)N[C@@H](CC(N)=O)C(=O)N[C@@H](CCCCN)C(=O)N4CCC[C@H]4C(=O)N3)NC(=O)[C@H](Cc3ccccc3)NC(=O)[C@H](Cc3c[nH]c4ccccc34)NC(=O)[C@H](C)NC(=O)CNC(=O)[C@H](CO)NC2=O)C(=O)N[C@@H](Cc2ccc(O)cc2)C(=O)N[C@@H](Cc2ccc(O)cc2)C(=O)N[C@@H](C)C(=O)N[C@@H](CC(N)=O)C(=O)N[C@@H](Cc2c[nH]c3ccccc23)C(=O)N[C@@H](CO)C(=O)N1)C(=O)N[C@@H](CC(=O)O)C(N)=O` [1A8.L5.1] (H-HADPICNKPCKTHDDCSGAWFCQTCYYANWSCGWGLRQID-NH2; disulfide 6-22, 10-25, 16-32) gave an IC50 of 1 ± 0.1 nM.
For the compound `CC[C@H](C)[C@H](NC(=O)[C@@H]1CCCN1C(=O)[C@H](CC(=O)O)NC(=O)[C@H](C)NC(=O)[C@@H](N)Cc1c[nH]cn1)C(=O)N[C@H]1CSSC[C@@H]2NC(=O)[C@H](Cc3ccccc3)NC(=O)[C@H](Cc3c[nH]c4ccccc34)NC(=O)[C@H](C)NC(=O)CNC(=O)[C@H](CO)NC(=O)[C@@H]3CSSC[C@@H](C(=O)N[C@@H](CCC(N)=O)C(=O)N[C@@H](Cc4c[nH]c5ccccc45)C(=O)N4CCC[C@H]4C(=O)N4CCC[C@H]4C(=O)N[C@@H](CCCNC(=N)N)C(=O)N[C@@H](Cc4c[nH]cn4)C(=O)N[C@@H](CCCNC(=N)N)C(=O)N[C@@H](CC(=O)O)C(N)=O)NC(=O)[C@H](CO)NC(=O)[C@H](Cc4c[nH]c5ccccc45)NC(=O)[C@H]([C@@H](C)O)NC(=O)[C@H](C)NC(=O)[C@H](Cc4ccc(O)cc4)NC(=O)[C@H](Cc4ccc(O)cc4)NC(=O)[C@H](CSSC[C@H](NC(=O)[C@@H]4CCCN4C(=O)[C@H](CCCCN)NC(=O)[C@H](CC(N)=O)NC1=O)C(=O)N[C@@H](CCCCN)C(=O)N[C@@H]([C@@H](C)O)C(=O)N[C@@H](Cc1c[nH]cn1)C(=O)N[C@@H](CC(=O)O)C(=O)N[C@@H](CC(=O)O)C(=O)N3)NC(=O)[C@H]([C@@H](C)O)NC(=O)[C@H](CCC(N)=O)NC2=O` [2D5] (H-HADPICNKPCKTHDDCSGAWFCQTCYYATWSCQWPPRHRD-NH2; disulfide 6-22, 10-25, 16-32), at HTRA1^PD(SA), the koff is given as 1.0 ± 0.1 s-1 x10-4, the kon was 10.5 ± 0.9 M-1 s-1 x104 and the Kd is 0.94 ± 0.12 nM.
For the compound `CC[C@H](C)[C@H](NC(=O)[C@@H]1CCCN1C(=O)[C@H](CC(=O)O)NC(=O)[C@H](C)NC(=O)[C@@H](N)Cc1c[nH]cn1)C(=O)N[C@H]1CSSC[C@@H]2NC(=O)[C@H](Cc3ccccc3)NC(=O)[C@H](Cc3c[nH]c4ccccc34)NC(=O)[C@H](C)NC(=O)CNC(=O)[C@H](CO)NC(=O)[C@@H]3CSSC[C@@H](C(=O)NCC(=O)N4CCC[C@H]4C(=O)NCC(=O)N[C@@H](Cc4c[nH]c5ccccc45)C(=O)N[C@@H](CCCNC(=N)N)C(N)=O)NC(=O)[C@H](CO)NC(=O)[C@H](Cc4c[nH]c5ccccc45)NC(=O)[C@H]([C@@H](C)O)NC(=O)[C@H](C)NC(=O)[C@H](Cc4ccc(O)cc4)NC(=O)[C@H](Cc4ccc(O)cc4)NC(=O)[C@H](CSSC[C@H](NC(=O)[C@@H]4CCCN4C(=O)[C@H](CCCCN)NC(=O)[C@H](CC(N)=O)NC1=O)C(=O)N[C@@H](CCCCN)C(=O)N[C@@H]([C@@H](C)O)C(=O)N[C@@H](Cc1c[nH]cn1)C(=O)N[C@@H](CC(=O)O)C(=O)N[C@@H](CC(=O)O)C(=O)N3)NC(=O)[C@H](C)NC(=O)[C@H](CCC(N)=O)NC2=O` [1A7] (H-HADPICNKPCKTHDDCSGAWFCQACYYATWSCGPGWR-NH2; disulfide 6-22, 10-25, 16-32), at HTRA1^PD(SA), the koff is on record as 6.5 ± 0.7 s-1 x10-4, the kon was 9.4 ± 1.3 M-1 s-1 x104 and the Kd was 7 ± 0.5 nM.
On the same counts, the results for `CC[C@H](C)[C@H](NC(=O)[C@@H]1CCCN1C(=O)[C@H](CC(=O)O)NC(=O)[C@H](C)NC(=O)[C@@H](N)Cc1c[nH]cn1)C(=O)N[C@H]1CSSC[C@@H]2NC(=O)[C@H](Cc3ccccc3)NC(=O)[C@H](Cc3c[nH]c4ccccc34)NC(=O)[C@H](C)NC(=O)CNC(=O)[C@H](CO)NC(=O)[C@@H]3CSSC[C@@H](C(=O)NCC(=O)N4CCC[C@H]4C(=O)NCC(=O)N[C@@H](CCCNC(=N)N)C(=O)N[C@@H](Cc4ccc(O)cc4)C(N)=O)NC(=O)[C@H](CO)NC(=O)[C@H](Cc4c[nH]c5ccccc45)NC(=O)[C@H]([C@@H](C)O)NC(=O)[C@H](C)NC(=O)[C@H](Cc4ccc(O)cc4)NC(=O)[C@H](Cc4ccc(O)cc4)NC(=O)[C@H](CSSC[C@H](NC(=O)[C@@H]4CCCN4C(=O)[C@H](CCCCN)NC(=O)[C@H](CC(N)=O)NC1=O)C(=O)N[C@@H](CCCCN)C(=O)N[C@@H]([C@@H](C)O)C(=O)N[C@@H](Cc1c[nH]cn1)C(=O)N[C@@H](CC(=O)O)C(=O)N[C@@H](CC(=O)O)C(=O)N3)NC(=O)[C@H](C)NC(=O)[C@H](CCC(N)=O)NC2=O` [1C10] (H-HADPICNKPCKTHDDCSGAWFCQACYYATWSCGPGRY-NH2; disulfide 6-22, 10-25, 16-32) are 4.7 ± 0.1 s-1 x10-4, 7.7 ± 2.4 M-1 s-1 x104 and 6.5 ± 2.2 nM.
On the same counts, the results for `CC[C@H](C)[C@H](NC(=O)[C@@H]1CCCN1C(=O)[C@H](CC(=O)O)NC(=O)[C@H](C)NC(=O)[C@@H](N)Cc1c[nH]cn1)C(=O)N[C@H]1CSSC[C@@H]2NC(=O)[C@H](Cc3ccccc3)NC(=O)[C@H](Cc3c[nH]c4ccccc34)NC(=O)[C@H](C)NC(=O)CNC(=O)[C@H](CO)NC(=O)[C@@H]3CSSC[C@@H](C(=O)NCC(=O)N4CCC[C@H]4C(=O)N[C@@H](Cc4ccc(O)cc4)C(=O)N[C@H](C(=O)NCC(N)=O)C(C)C)NC(=O)[C@H](CCCNC(=N)N)NC(=O)[C@H](Cc4c[nH]c5ccccc45)NC(=O)[C@H](CC(N)=O)NC(=O)[C@H](C)NC(=O)[C@H](Cc4ccccc4)NC(=O)[C@H](Cc4ccc(O)cc4)NC(=O)[C@H](CSSC[C@H](NC(=O)[C@@H]4CCCN4C(=O)[C@H](CCCCN)NC(=O)[C@H](CC(N)=O)NC1=O)C(=O)N[C@@H](CCCCN)C(=O)N[C@@H]([C@@H](C)O)C(=O)N[C@@H](Cc1c[nH]cn1)C(=O)N[C@@H](CC(=O)O)C(=O)N[C@@H](CC(=O)O)C(=O)N3)NC(=O)[C@H](C)NC(=O)[C@H](CCC(N)=O)NC2=O` [3A7] (H-HADPICNKPCKTHDDCSGAWFCQACYFANWRCGPYVG-NH2; disulfide 6-22, 10-25, 16-32) are 2.8 ± 0.2 s-1 x10-4, 4.5 ± 0.3 M-1 s-1 x104 and 6.2 ± 0.2 nM.

Broadly, the IC50 is the concentration that inhibits the measured activity by half. High values mean weaker potency, low ones greater potency. Broadly, the Kd is the concentration at which binding is half-saturated.
